The subject of data set [1] is metastatic colorectal cancer. The conditions noted are these: oral capecitabine, first-line, phase III; cited from earlier work.
Data set [2] has as its system early stage HCT-116 colon carcinoma. Here is the method:
(§1) This efficacy may be quantified, for example by the log10 cells killed, which is determined by the following formula:
(§2) log10 cell killed=T-C(days)/3.32×Td
(§3) A product is considered to be active if the log10 cell kill is greater than or equal to 0.7. A product is considered to be very active is the log10 cell kill is greater than 2.8.
Three dosage levels of capecitabine were given alone on days 18-22 and 25-29. In the combination arm, two semi-simultaneous schedules were investigated.

Data set [3] concerns human colon carcinoma strain HCT-116. The conditions noted are these: for Comments / Log10 cell Kill / T-C (Tumor Growth Delay): days 5-9, 12-16; for activity at the maximum tolerated dose: maximum tolerated doses, p.o., HCT-116 in Swiss-nude mice. The procedure: as §1, §2, §3
The mark [4] stands for this setting: capecitabine 443 mg/kg/adm p.o., days 18-22 & 25-29.
Setting [5] is: capecitabine 713 mg/kg/adm p.o., days 18-22 & 25-29.
[6] abbreviates: capecitabine 1150 mg/kg/adm p.o., days 18-22 & 25-29.
The mark [7] stands for this setting: capecitabine 443 mg/kg/adm p.o.
[8] abbreviates: capecitabine 713 mg/kg/adm p.o.
Where [9] appears, read: CPT-11 60 mg/kg/adm p.o., days 18-22.
Where [10] appears, read: CPT-11 96 mg/kg/adm p.o., days 18-22.

Read-outs that look alike come from different tables or passages of the source.

Take `CCCCCOC(=O)Nc1nc(=O)n([C@@H]2O[C@H](C)[C@@H](O)[C@H]2O)cc1F` [capecitabine, 5′-deoxy-5-fluoro-N-[(pentyloxy)-carbonyl]-cytidine]: the “efficacy compared with i.v. 5-FU/leucovorin (Mayo Clinic regimen)” value in data set [1] is “superior response rate and at least equivalent survival and time to disease progression”. The “safety profile compared with the Mayo Clinic regimen” value in data set [1] is listed as “more favourable safety profile”. In addition, the Comments result in data set [2] (setting [4]), in data set [2] (setting [5]), in data set [3] (setting [7]) and in data set [3] (setting [8]) was “Active” each time. Besides, the “Log10 cell Kill” value in data set [2] (setting [4]) was determined as 2.1; in data set [2] (setting [5]), 2.1; in data set [2] (setting [6]), 3.2; in data set [3] (setting [7]), 1.1; in data set [3] (setting [8]) it was 2.6. In addition, the “T-C (Tumor Growth Delay)” value stood at 26.1 days in data set [2] (setting [4]); 25.2 days in data set [2] (setting [5]); 39.4 days in data set [2] (setting [6]); 16.3 days in data set [3] (setting [7]); 38.7 days in data set [3] (setting [8]). In data set [3], the “activity at the maximum tolerated dose” value is “highly active”.
As to irinotecan [CPT-11], the Comments entry in data set [2] (setting [9]) is “Active”; in data set [2] (setting [10]), “HNTD”; in data set [2] (CPT-11 155 mg/kg/adm p.o., days 18-22), “Toxic”; in data set [3] (CPT-11 29 mg/kg/adm p.o.) it was “Active”; in data set [3] (CPT-11 48 mg/kg/adm p.o.) it was “HNTD”; in data set [3] (CPT-11 80 mg/kg/adm p.o.), “Toxic”. The figures for the “Log10 cell Kill” value in data set [2] (setting [9]), in data set [2] (setting [10]) and in data set [3] (CPT-11 29 mg/kg/adm p.o.) were 1.7, 1.7 and 2.1, respectively. Moreover, the “T-C (Tumor Growth Delay)” value in data set [2] (setting [9]) is listed as 21.4 days; in data set [2] (setting [10]), 21.3 days; in data set [3] (CPT-11 29 mg/kg/adm p.o.), 30.1 days. Besides, the “activity at the maximum tolerated dose” value in data set [3] was “highly active”.

The values above are taken from patent US6664242B2 (priority 2000, dated 2003).
